These results are taken from patent US5238935A, “N-acyl-tetrahydroisoquinolines as inhibitors of acyl-coenzyme A: cholesterol acyl transferase” (Schering Corporation, priority 1992, dated 1993).

Assay [1] has as its target T1, ACAT (Rattus norvegicus, UniProt Q7TQM4).
T1 construct: Rat liver microsomes are used as the source of ACAT; from tissue; host or cells: rat liver microsomes
T1 sequence (Q7TQM4 1-524): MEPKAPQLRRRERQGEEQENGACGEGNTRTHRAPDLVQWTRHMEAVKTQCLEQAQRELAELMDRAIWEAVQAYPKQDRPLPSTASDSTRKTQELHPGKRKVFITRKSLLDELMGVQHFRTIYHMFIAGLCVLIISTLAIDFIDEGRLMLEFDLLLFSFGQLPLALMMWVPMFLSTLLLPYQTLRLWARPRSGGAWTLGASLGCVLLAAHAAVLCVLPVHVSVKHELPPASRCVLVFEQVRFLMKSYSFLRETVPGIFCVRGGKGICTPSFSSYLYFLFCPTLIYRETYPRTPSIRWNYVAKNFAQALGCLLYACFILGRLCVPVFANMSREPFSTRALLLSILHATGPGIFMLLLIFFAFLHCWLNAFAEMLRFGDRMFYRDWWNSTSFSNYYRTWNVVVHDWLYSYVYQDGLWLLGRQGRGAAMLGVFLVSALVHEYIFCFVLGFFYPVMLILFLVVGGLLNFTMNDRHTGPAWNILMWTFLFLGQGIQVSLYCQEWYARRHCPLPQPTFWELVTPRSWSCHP
The assay can be described thus: ACAT assay (in vitro). To be noted: rat liver microsomes; for inhibition at 10 µM / inhibition at 25 µM: read-out: ACAT Inhibition Screen % Inhibition; for IC50: pH 7.4, 37° C., 10 μM acyl CoA, read-out: ACAT Inhibition Screen IC50. Type of assay: biochemical. The protocol: The in vitro activity of compounds of formula I or Ia can be determined by the following procedure.
This assay measures the activity of ACAT by measuring the ACAT-mediated transfer of tritiated oleic acid from acyl-CoA to cholesterol to give labelled cholesterol oleate. Rat liver microsomes are used as the source of ACAT. Assays are performed in round bottom microtiterplates using a total incubation volume of 50μL. Each incubation well receives 10 μL assay buffer (0.5M KHPO4, 10 μM dithiothreitol, pH 7.4), 7.5 μL of 40 mg/mL BSA (Bovine Serum Albumin) and 12.5 μg of microsomal protein. The test compound (in sufficient amount to bring the final concentration to from 0.1 to 25 μM), reference compound, or vehicle control is added and the final volume brought to 47 μL. The microtiterplate is then floated on the surface of a 37° C. water bath for fifteen minutes. Incubations are started by the addition of 3 μL ^3 H-acyl CoA (1 μCi/well, final concentration of 10 μM acyl CoA). The plate is then returned to the water bath for 15 minutes. The incubations are then terminated by application of 15 μL from each incubation to individual lanes on a thin layer plate (Silica Gel GF 20×20 cm). Standards are applied to several lanes so that the cholesterol ester band can be identified. After drying, the plates are eluted with 90:10:1 petroleum ether:diethyl ether:acetic acid. The standards are visualized via iodine vapor, and the regions corresponding to cholesterol ester are scraped into 7 mL scintillation vials. 4 mL of scintillant are added to each vial, and the radioactivity quantified. Background count is determined by the boiled controls. Full activity is determined by activity in the presence of vehicle. The percent inhibition is calculated by subtracting the background from both control and test samples, and the test value is calculated as a percentage of the control. For IC50 determinations, the inhibition is plotted against drug doses on a log scale and the concentration at which 50% inhibiting is obtained is determined.
In general terms: Liver microsomes are a subcellular fraction often used to study metabolism.

The target in assay [2] is T1, ACAT. The assay can be described thus: ACAT assay (in vitro). The format is biochemical. To be noted: rat liver microsomes, read-out: ACAT Inhibition Screen % Inhibition.

The term inhibition denotes the change of the read-out against control, counted positive when it falls. With `CCCCCCCC/C=C\CCCCCCCC(=O)N1CCc2ccccc2C1c1cc(Cl)ccc1NC` (centres unmarked) [N-[1-(2-methylamino-5-chlorophenyl)-1,2,3,4-tetrahydroisoquinoline]-9-Z-octadecenamide], in assay [1], the inhibition at 10 µM was 10%. For the molecule `CCCCCCCC/C=C\CCCCCCCC(=O)N1CCc2cc(OC)c(OC)cc2C1Cc1ccc(OC)c(OC)c1` (centres unmarked), the inhibition at 25 µM in assay [1] was determined as 91%.

`CCCCCCCC/C=C\CCCCCCCC(=O)N1Cc2cc(OC)c(OC)cc2CC1c1ccc(OC)c(OC)c1` (centres unmarked) [N-[6,7-dimethoxy-3-(3,4-dimethoxyphenyl)-1,2,3,4-tetrahydroisoquinoline]-9-Z-octadecenamide]: in assay [1], the inhibition at 25 µM came to 67%. Broadly, the IC50 is the concentration at which inhibition is half-maximal. Regarding `CCCCCCCC/C=C\CCCCCCCC(=O)N1CCc2ccccc2C1` [R3=H, R4=H, R5=H, R2a=H, R2b=H], the IC50 in assay [1] came to 12 µM. The inhibition at 100 µM in assay [2] was determined as 83%. For `CCCCCCCC/C=C\CCCCCCCC(=O)N1Cc2cc(OC)c(OC)cc2CC1c1ccccc1` (centres unmarked) [R3=H, R4=C6H5, R5=H, R2a=CH3O, R2b=CH3O, N-(6,7-dimethoxy-3-phenyl1,2,3,4-tetrahydroisoquinoline)-9-Z-octadecenamide], in assay [1], the inhibition at 25 µM was 86%.

Take `CCCCCCCC/C=C\CCCCCCCC(=O)N1CCc2cc(OC)c(OC)cc2C1Cc1ccccc1` (centres unmarked): in assay [1], the inhibition at 25 µM was 63%. For the molecule `CCCCCCCC/C=C/CCCCCCCC(=O)N1CCc2cc(OC)c(OC)cc2C1c1ccccc1` (centres unmarked), in assay [1], the inhibition at 10 µM was 87% and the IC50 is 8 µM.

With `CCCCCCCC/C=C\CCCCCCCC(=O)N1CCc2cc(C)c(OC)cc2C1CCc1ccc(Cl)cc1` (centres unmarked), the inhibition at 25 µM in assay [1] is 4%. Take `CCCCCCCC/C=C\CCCCCCCC(=O)N1CCc2cc(OC)c(OC)cc2C1` [R3=H, R4=H, R5=H, R2a=CH3O, R2b=CH3O]: in assay [1], the inhibition at 25 µM turned out to be 100% and the IC50 came to 0.74 µM. Taken in the same sequence, the figures for `CCCCCCCC/C=C\CCCCCCCC(=O)N1Cc2cc(OC)c(OC)cc2C(c2ccccc2)C1` (centres unmarked) [R3=H, R4=H, R5=C6H5, R2a=CH3O, R2b=CH3O, N-(6,7-dimethoxy-4-phenyl-1,2,3,4-tetrahydroisoquinoline)-9-Z-octadecenamid] were 83% and 2.4 µM. For `CCCCCCCC/C=C\CCCCCCCC(=O)N1CCc2cc(OC)c(OC)cc2C1c1ccccc1` (centres unmarked) [N-(6,7-dimethoxy-1-phenyl-1,2,3,4-tetrahydroisoquinoline)-9-Z-octadecenamid], in assay [1], the inhibition at 10 µM worked out at 66%. Regarding `CCCCCCCC/C=C\CCCCCCCC(=O)N1CCc2ccccc2C1Cc1ccccc1` (centres unmarked) [R3=C6H5CH2, R4=H, R5=H, R2a=H, R2b=H], in assay [1], the inhibition at 25 µM is 81%.

In the case of `CCCCCCCC/C=C\CCCCCCCC(=O)N1CCc2cc(O)c(O)cc2C1Cc1ccccc1` (centres unmarked) [R3=C6H5CH2, R4=H, R5=H, R2a=OH, R2b=OH, N-(1-benzyl-6,7-dihydroxy-1,2,3,4-tetrahydroisoquinoline)-9-Z-octadecenamide], in assay [1], the inhibition at 25 µM was determined as 73%.
